Paper PMC5218480 (PLoS ONE, 2017)

Test system: MV-4-11 cells
Experiment: Gene expression microarray analysis (Affymetrix PrimeView) and GSEA
Type: cell-based, human
Parameters: RFU PODN (11730768_x_at) / Fold change /veh PODN (11730768_x_at) / RFU LINC00158 (11744669_a_at) / Fold change /veh LINC00158 (11744669_a_at) / RFU DUSP10 (11751237_a_at) / Fold change /veh DUSP10 (11751237_a_at) / RFU ID3 (11757404_x_at) / Fold change /veh ID3 (11757404_x_at) / RFU PLEKHG5 (11737974_s_at) / Fold change /veh PLEKHG5 (11737974_s_at) / RFU LRRC4B (11730491_at) / Fold change /veh LRRC4B (11730491_at) / RFU GIMAP4 (11747438_a_at) / Fold change /veh GIMAP4 (11747438_a_at) / RFU KRT8 (11758183_x_at) / Fold change /veh KRT8 (11758183_x_at) / RFU CNN1 (11734310_a_at) / Fold change /veh CNN1 (11734310_a_at) / RFU VPS37D (11726825_at) / Fold change /veh VPS37D (11726825_at) / RFU C10orf10 (11716522_x_at) / Fold change /veh C10orf10 (11716522_x_at) / RFU KIR2DL2 /// KIR2DL4 /// KIR2DL5A /// KIR2DL5B /// KIR2DS1 /// KIR2DS2 /// KIR2DS3 /// KIR2DS4 /// KIR3DL3 /// KIR3DL3 /// KIR3DS1 (11738374_at) / Fold change /veh KIR2DL2 /// KIR2DL4 /// KIR2DL5A /// KIR2DL5B /// KIR2DS1 /// KIR2DS2 /// KIR2DS3 /// KIR2DS4 /// KIR3DL3 /// KIR3DL3 /// KIR3DS1 (11738374_at) / RFU C1QL1 (11718748_at) / Fold change /veh C1QL1 (11718748_at) / RFU TMPRSS4 (11747572_a_at) / Fold change /veh TMPRSS4 (11747572_a_at) / RFU HAMP (11756126_x_at) / Fold change /veh HAMP (11756126_x_at) / RFU RNFT2 (11725882_a_at) / Fold change /veh RNFT2 (11725882_a_at) / RFU NR4A2 (11747474_a_at) / Fold change /veh NR4A2 (11747474_a_at) / RFU ABCC12 (11746883_a_at) / Fold change /veh ABCC12 (11746883_a_at) / RFU TMEM136 (11760407_x_at) / Fold change /veh TMEM136 (11760407_x_at) / RFU CLDN22 /// WWC2 (11732394_at) / Fold change /veh CLDN22 /// WWC2 (11732394_at) / RFU HLA-DPB1 (11760878_x_at) / Fold change /veh HLA-DPB1 (11760878_x_at) / RFU SPINT1 (11716480_a_at) / Fold change /veh SPINT1 (11716480_a_at) / RFU GAP43 (11754022_s_at) / Fold change /veh GAP43 (11754022_s_at) / RFU A4GNT (11735810_at) / Fold change /veh A4GNT (11735810_at) / RFU PRB3 (11715151_x_at) / Fold change /veh PRB3 (11715151_x_at) / RFU TUBB4B (11761932_at) / Fold change /veh TUBB4B (11761932_at) / RFU CAPN14 (11732068_a_at) / Fold change /veh CAPN14 (11732068_a_at) / RFU TMCC2 (11721928_a_at) / Fold change /veh TMCC2 (11721928_a_at) / RFU IRGQ (11745062_a_at) / Fold change /veh IRGQ (11745062_a_at) / RFU FAM174B (11720279_a_at) / Fold change /veh FAM174B (11720279_a_at) / RFU TMPRSS4 (11748680_a_at) / Fold change /veh TMPRSS4 (11748680_a_at) / RFU FAM212B (11763350_a_at) / Fold change /veh FAM212B (11763350_a_at) / RFU PLEKHG5 (11743358_a_at) / Fold change /veh PLEKHG5 (11743358_a_at) / RFU ZSCAN30 (11745921_a_at) / Fold change /veh ZSCAN30 (11745921_a_at) / RFU CMKLR1 (11741424_a_at) / Fold change /veh CMKLR1 (11741424_a_at) / RFU LOC101060620 /// MAPK8IP1 (11723275_at) / Fold change /veh LOC101060620 /// MAPK8IP1 (11723275_at) / RFU SPTSSB (11747773_x_at) / Fold change /veh SPTSSB (11747773_x_at) / RFU PRSS12 (11739890_at) / Fold change /veh PRSS12 (11739890_at) / RFU BIN1 (11741810_x_at) / Fold change /veh BIN1 (11741810_x_at) / RFU WNT11 (11732464_a_at) / Fold change /veh WNT11 (11732464_a_at) / RFU C10orf10 (11716521_a_at) / Fold change /veh C10orf10 (11716521_a_at) / RFU C5orf56 (11738089_at) / Fold change /veh C5orf56 (11738089_at) / RFU CYB561 (11721691_x_at) / Fold change /veh CYB561 (11721691_x_at) / RFU ANKRD19P (11752326_a_at) / Fold change /veh ANKRD19P (11752326_a_at) / RFU OR2T12 /// OR2T33 /// OR2T8 (11738714_s_at) / Fold change /veh OR2T12 /// OR2T33 /// OR2T8 (11738714_s_at) / RFU VCAN (11748164_a_at) / Fold change /veh VCAN (11748164_a_at) / RFU JSRP1 (11732532_at) / Fold change /veh JSRP1 (11732532_at) / RFU KRTAP10-11 (11738290_x_at) / Fold change /veh KRTAP10-11 (11738290_x_at) / RFU MYO3A (11730013_a_at) / Fold change /veh MYO3A (11730013_a_at) / RFU EBF3 (11725865_a_at) / Fold change /veh EBF3 (11725865_a_at) / RFU CAMK2N1 (11719241_x_at) / Fold change /veh CAMK2N1 (11719241_x_at) / RFU C5orf56 (11738088_a_at) / Fold change /veh C5orf56 (11738088_a_at) / RFU OLFML3 (11715873_a_at) / Fold change /veh OLFML3 (11715873_a_at) / RFU LOC100653217 /// NTM (11731650_a_at) / Fold change /veh LOC100653217 /// NTM (11731650_a_at) / RFU MAPK11 (11762145_a_at) / Fold change /veh MAPK11 (11762145_a_at) / RFU FIZ1 (11724087_x_at) / Fold change /veh FIZ1 (11724087_x_at) / RFU OASL (11726364_x_at) / Fold change /veh OASL (11726364_x_at) / RFU SOX15 (11748057_x_at) / Fold change /veh SOX15 (11748057_x_at) / RFU CD79A (11719716_a_at) / Fold change /veh CD79A (11719716_a_at) / RFU HIST1H1D (11736915_at) / Fold change /veh HIST1H1D (11736915_at) / RFU CASKIN2 (11723855_a_at) / Fold change /veh CASKIN2 (11723855_a_at) / RFU LOC730098 (11760151_x_at) / Fold change /veh LOC730098 (11760151_x_at) / RFU OR4N2 (11742367_at) / Fold change /veh OR4N2 (11742367_at) / RFU PRRT2 (11749266_a_at) / Fold change /veh PRRT2 (11749266_a_at) / RFU SNX32 (11753110_a_at) / Fold change /veh SNX32 (11753110_a_at) / RFU CDHR5 (11726645_a_at) / Fold change /veh CDHR5 (11726645_a_at) / RFU RCAN1 (11760418_a_at) / Fold change /veh RCAN1 (11760418_a_at) / RFU FAM167A (11723789_a_at) / Fold change /veh FAM167A (11723789_a_at) / RFU FAM26E (11764081_at) / Fold change /veh FAM26E (11764081_at) / RFU ISYNA1 (11749810_s_at) / Fold change /veh ISYNA1 (11749810_s_at) / RFU ACY1 (11761880_at) / Fold change /veh ACY1 (11761880_at) / RFU 11764098_at / Fold change /veh 11764098_at / RFU SAMD14 (11745864_x_at) / Fold change /veh SAMD14 (11745864_x_at) / RFU NPB (11741838_a_at) / Fold change /veh NPB (11741838_a_at) / RFU TMPRSS6 (11731388_a_at) / Fold change /veh TMPRSS6 (11731388_a_at) / RFU KRTAP10-2 (11738614_at) / Fold change /veh KRTAP10-2 (11738614_at) / RFU ARHGAP8 /// PRR5-ARHGAP8 (11727945_x_at) / Fold change /veh ARHGAP8 /// PRR5-ARHGAP8 (11727945_x_at) / RFU KRTAP5-7 /// NADSYN1 (11734609_at) / Fold change /veh KRTAP5-7 /// NADSYN1 (11734609_at) / RFU RASL12 (11751679_a_at) / Fold change /veh RASL12 (11751679_a_at) / RFU CDKN2B (11736163_a_at) / Fold change /veh CDKN2B (11736163_a_at) / RFU PRF1 (11729649_at) / Fold change /veh PRF1 (11729649_at) / RFU, ZNF638 /// ZNF638-IT1 / Fold change vs veh, ZNF638 /// ZNF638-IT1 / RFU, PANK3 / Fold change vs veh, PANK3 / RFU, SH3YL1 / Fold change vs veh, SH3YL1 / RFU, ZEB2 / Fold change vs veh, ZEB2 / RFU, NRIP1 / Fold change vs veh, NRIP1 / RFU, PTTG1IP / Fold change vs veh, PTTG1IP / RFU, CAPN2 / Fold change vs veh, CAPN2 / RFU, MED14 / Fold change vs veh, MED14 / RFU, SNORA58 / Fold change vs veh, SNORA58 / RFU, C1orf63 / Fold change vs veh, C1orf63 / RFU, LRRFIP1 / Fold change vs veh, LRRFIP1 / RFU, NDUFAF7 / Fold change vs veh, NDUFAF7 / RFU, SLC12A2 / Fold change vs veh, SLC12A2 / RFU, IBTK / Fold change vs veh, IBTK / RFU, ESF1 / Fold change vs veh, ESF1 / Fold change vs veh, TMEM50B / RFU, TAOK1 / Fold change vs veh, TAOK1 / RFU, ACBD3 / Fold change vs veh, ACBD3 / RFU, TMA16 / Fold change vs veh, TMA16 / RFU, RWDD3 / Fold change vs veh, RWDD3 / RFU, BCAT1 / Fold change vs veh, BCAT1 / RFU, EDEM3 / Fold change vs veh, EDEM3 / RFU, TMEM33 / Fold change vs veh, TMEM33 / RFU, WDR75 / Fold change vs veh, WDR75 / RFU, AHCTF1 / Fold change vs veh, AHCTF1 / RFU, TFRC / Fold change vs veh, TFRC / RFU, ZDHHC17 / Fold change vs veh, ZDHHC17 / RFU, NOM1 / Fold change vs veh, NOM1 / RFU, ARL8B / Fold change vs veh, ARL8B / RFU, ZBTB11 / Fold change vs veh, ZBTB11 / RFU, TAMM41 / Fold change vs veh, TAMM41 / RFU, KIAA1704 /// LOC100996395 / Fold change vs veh, KIAA1704 /// LOC100996395 / RFU, ING1 / Fold change vs veh, ING1 / RFU, TRMT61B / Fold change vs veh, TRMT61B / RFU, FUBP3 / Fold change vs veh, FUBP3 / RFU, TP53 / Fold change vs veh, TP53 / RFU, TNKS2 / Fold change vs veh, TNKS2 / RFU, ZFP14 / Fold change vs veh, ZFP14 / RFU, ACTR2 / Fold change vs veh, ACTR2 / RFU, PPP3R1 / Fold change vs veh, PPP3R1 / RFU, PIK3R1 / Fold change vs veh, PIK3R1 / RFU, HNRNPA1 / Fold change vs veh, HNRNPA1 / RFU, RNF170 / Fold change vs veh, RNF170 / RFU, ZNF28 / Fold change vs veh, ZNF28 / RFU, RNGTT / Fold change vs veh, RNGTT / RFU, OGT / Fold change vs veh, OGT / RFU, BRD1 / Fold change vs veh, BRD1 / RFU, MARS / Fold change vs veh, MARS / RFU, ZNF655 / Fold change vs veh, ZNF655 / RFU, FAHD1 / Fold change vs veh, FAHD1 / RFU, BDP1 / Fold change vs veh, BDP1 / RFU, LRRCC1 / Fold change vs veh, LRRCC1 / RFU, ARID1A / Fold change vs veh, ARID1A / RFU, ZNF146 / Fold change vs veh, ZNF146 / RFU, ZNF330 / Fold change vs veh, ZNF330 / RFU, GPN3 / Fold change vs veh, GPN3 / RFU, C9orf123 / Fold change vs veh, C9orf123 / RFU, N4BP2L2 / Fold change vs veh, N4BP2L2 / RFU, ARFIP1 / Fold change vs veh, ARFIP1 / RFU, FAM179B / Fold change vs veh, FAM179B / RFU, BCL10 / Fold change vs veh, BCL10 / RFU, UHRF1BP1L / Fold change vs veh, UHRF1BP1L / RFU, BET1 / Fold change vs veh, BET1 / RFU, CNOT2 / Fold change vs veh, CNOT2 / RFU, ZNF268 / Fold change vs veh, ZNF268 / Fold change vs veh, ZNF507 / RFU, DGCR2 / Fold change vs veh, DGCR2 / RFU, WDSUB1 / Fold change vs veh, WDSUB1 / Fold change vs veh, HSP90B1 /// MIR3652 / RFU, ADSS / Fold change vs veh, ADSS / RFU, GK / Fold change vs veh, GK / RFU, ZNF148 / Fold change vs veh, ZNF148 / RFU, TAF9 / Fold change vs veh, TAF9 / RFU, SLC1A5 / Fold change vs veh, SLC1A5 / RFU, SLMO2 / Fold change vs veh, SLMO2 / RFU, ABCC4 / Fold change vs veh, ABCC4 / RFU, LOC101060439 /// RAP1B / Fold change vs veh, LOC101060439 /// RAP1B / RFU, RFX7 / Fold change vs veh, RFX7 / RFU, GTPBP10 / Fold change vs veh, GTPBP10 / RFU, CNEP1R1 / Fold change vs veh, CNEP1R1 / RFU, BIVM-ERCC5 /// ERCC5 / Fold change vs veh, BIVM-ERCC5 /// ERCC5 / RFU, ILF3 / Fold change vs veh, ILF3 / RFU 11762660_at / Fold change /veh 11762660_at / RFU VCAN (11757783_s_at) / Fold change /veh VCAN (11757783_s_at) / RFU DDX43 (11728927_at) / Fold change /veh DDX43 (11728927_at) / RFU KRT8 (11758188_x_at) / Fold change /veh KRT8 (11758188_x_at) / RFU NKD1 (11759106_at) / Fold change /veh NKD1 (11759106_at) / RFU SRD5A1 (11742802_a_at) / Fold change /veh SRD5A1 (11742802_a_at) / RFU TPSAB1 /// TPSB2 (11721975_s_at) / Fold change /veh TPSAB1 /// TPSB2 (11721975_s_at) / RFU GSTM3 (11746129_a_at) / Fold change /veh GSTM3 (11746129_a_at) / RFU IL23R (11737362_x_at) / Fold change /veh IL23R (11737362_x_at) / RFU TMEM51 (11727254_a_at) / Fold change /veh TMEM51 (11727254_a_at) / RFU PIWIL2 (11732686_x_at) / Fold change /veh PIWIL2 (11732686_x_at) / RFU ORM1 (11744905_x_at) / Fold change /veh ORM1 (11744905_x_at) / RFU CCDC152 (11743942_at) / Fold change /veh CCDC152 (11743942_at) / RFU ECM1 (11717891_a_at) / Fold change /veh ECM1 (11717891_a_at) / RFU IL23R (11748794_a_at) / Fold change /veh IL23R (11748794_a_at) / RFU TNFAIP8L3 (11732012_x_at) / Fold change /veh TNFAIP8L3 (11732012_x_at) / RFU MBOAT4 (11741988_at) / Fold change /veh MBOAT4 (11741988_at) / RFU 11764193_at / Fold change /veh 11764193_at / RFU TMEM53 (11763286_at) / Fold change /veh TMEM53 (11763286_at) / RFU MAGEB2 (11727129_at) / Fold change /veh MAGEB2 (11727129_at) / RFU TMEM200A (11744735_a_at) / Fold change /veh TMEM200A (11744735_a_at) / RFU CCDC152 (11751479_a_at) / Fold change /veh CCDC152 (11751479_a_at) / RFU FAM211A (11726209_a_at) / Fold change /veh FAM211A (11726209_a_at) / RFU RGS16 (11746705_a_at) / Fold change /veh RGS16 (11746705_a_at) / RFU VCAN (11755009_s_at) / Fold change /veh VCAN (11755009_s_at) / RFU RHOB (11743442_s_at) / Fold change /veh RHOB (11743442_s_at) / RFU RGS16 (11720943_a_at) / Fold change /veh RGS16 (11720943_a_at) / RFU RGS16 (11720944_at) / Fold change /veh RGS16 (11720944_at) / RFU, VPS4B / Fold change vs veh, VPS4B / RFU, CREB1 / Fold change vs veh, CREB1 / RFU, DNAJC13 / Fold change vs veh, DNAJC13 / RFU, GNAQ / Fold change vs veh, GNAQ / RFU, CDK5R1 / Fold change vs veh, CDK5R1 / RFU, ZRANB3 / Fold change vs veh, ZRANB3 / RFU, CUL4A / Fold change vs veh, CUL4A / RFU, CCNY / Fold change vs veh, CCNY / RFU, UFL1 / Fold change vs veh, UFL1 / RFU, COG3 / Fold change vs veh, COG3 / RFU, DIAPH2 / Fold change vs veh, DIAPH2 / RFU, SKA2 / Fold change vs veh, SKA2 / RFU, AFF3 / Fold change vs veh, AFF3 / RFU, LMF1 / Fold change vs veh, LMF1 / RFU, IPO11 / Fold change vs veh, IPO11 / RFU, DFFB / Fold change vs veh, DFFB / RFU, FOXP1 / Fold change vs veh, FOXP1 / RFU, CARD8 / Fold change vs veh, CARD8 / RFU, STRN3 / Fold change vs veh, STRN3 / RFU, ADK / Fold change vs veh, ADK / RFU, RASSF2 / Fold change vs veh, RASSF2 / RFU, WIPF1 / Fold change vs veh, WIPF1 / RFU, LARP1B / Fold change vs veh, LARP1B / RFU, RASA1 / Fold change vs veh, RASA1 / RFU, RB1 / Fold change vs veh, RB1 / RFU, PPFIA1 / Fold change vs veh, PPFIA1 / RFU, MAT2A / Fold change vs veh, MAT2A / RFU, CCT5 / Fold change vs veh, CCT5 / RFU, WDR92 / Fold change vs veh, WDR92 / RFU, CUX1 / Fold change vs veh, CUX1 / RFU, TTC7A / Fold change vs veh, TTC7A / RFU, TMEM135 / Fold change vs veh, TMEM135 / RFU, DEPTOR / Fold change vs veh, DEPTOR / RFU, CPM / Fold change vs veh, CPM / RFU, DNAJB6 / Fold change vs veh, DNAJB6 / RFU, CACNA2D3 / Fold change vs veh, CACNA2D3 / RFU, DTX4 / Fold change vs veh, DTX4 / RFU, TFCP2 / Fold change vs veh, TFCP2 / RFU, GMCL1 /// GMCL1P1 / Fold change vs veh, GMCL1 /// GMCL1P1 / RFU, AEBP2 / Fold change vs veh, AEBP2 / RFU, SNHG1 /// SNORD22 /// SNORD25 /// SNORD26 /// SNORD27 /// SNORD28 /// SNORD29 /// SNORD31 / Fold change vs veh, SNHG1 /// SNORD22 /// SNORD25 /// SNORD26 /// SNORD27 /// SNORD28 /// SNORD29 /// SNORD31 / Fold change (Aza/veh), C12orf56 (ProbeSet 11735607_a_at) / Fold change (ACY-1035/veh), C12orf56 (ProbeSet 11735607_a_at) / Fold change (Aza/veh), FGFR1OP (ProbeSet 11751329_s_at) / Fold change (ACY-1035/veh), FGFR1OP (ProbeSet 11751329_s_at) / Fold change (Aza/veh), VPS36 (ProbeSet 11739960_a_at) / Fold change (ACY-1035/veh), VPS36 (ProbeSet 11739960_a_at) / RFU SYPL1 (11715823_x_at) / Fold change /veh SYPL1 (11715823_x_at) / RFU IGFBP7 (11715501_s_at) / Fold change /veh IGFBP7 (11715501_s_at) / RFU REEP3 (11722064_at) / Fold change /veh REEP3 (11722064_at) / RFU IGLL1 (11728026_x_at) / Fold change /veh IGLL1 (11728026_x_at): dose or concentration left out as unconfirmed
Details: MV-4-11 cells, 48 hours

**Q.** `Nc1ncn([C@@H]2O[C@H](CO)[C@@H](O)[C@H]2O)c(=O)n1` [azacitidine] was tested. Which “Fold change /veh RGS16 (11746705_a_at)” value did it give?
**A.** 1.56
